Among the data in PubChem BioAssay AID720577 (The Scripps Research Institute Molecular Screening Center, 2013) are IC50 values, retold here.

The source made the active and inactive calls. The rule behind the calls is not given here.

The assay addresses CCHF virus vOTU protease domain (L polyprotein). The experiment in a line: Crimean Congo hemorrhagic fever virus vOTU protease, Pep AMC substrate, counterscreen, confirmatory (AID 720577). The conditions noted are these: purified vOTU, fluorescence.

For `COc1ccc(/C=N/NC(=O)c2nn(-c3ccc(Cl)cc3)c(=O)c3c(N)scc23)cc1`, the IC50 entry is “inactive”. Turning to `O=C(O)c1ccc(NC2=C(n3nnc4ccccc43)C(=O)c3ccccc3C2=O)cc1`, the IC50 entry is “inactive”. The entry for `NS(=O)(=O)c1ccc(NC(=O)COC(=O)c2ccc([N+](=O)[O-])s2)cc1` is “inactive”. The result for `CC(C)NC1=C(Cl)C(=O)c2ccccc2C1=O` reads “inactive”; that for `Cc1cnc(C=NNC(N)=S)c2cccc(N)c12`, “inactive”. As to `NC(=S)N=Nc1c(O)cc(O)c2[nH]c(=O)ccc12`, the IC50 entry is “inactive”. As to `CN=c1sc2c(n1C)C(=O)c1ccccc1C2=O`, the IC50 is 5.75 µM. The entry for `CC1(OC(=O)C2CCCC2)C(=O)C=C2C=C(c3ccsc3)N(CCCCO)C=C2C1=O` (centres undefined) is “inactive”; for `C[n+]1c(-c2ccccc2)cc2c(=Cc3ccc([N+](=O)[O-])cc3)c3ccccc3n21` it is 4.14 µM.

In the case of `C=CCN(CC=C)C(=S)Nc1ccc2nsnc2c1`, the IC50 result was “inactive”. `O=C1C(Cl)=C(NCCCO)C(=O)c2ccccc21`: the IC50 result is “inactive”. For `CN1CCN(C2=C(Cl)C(=O)c3ccccc3C2=O)CC1`, the IC50 was 1.07 µM. The figure for `COc1ccc(C(C[N+](=O)[O-])c2c(C)[nH]n(-c3ccccc3)c2=O)cc1` (centres undefined) is > 115 µM (inactive); for `CC[n+]1c(-c2ccccc2)c2cc(N)ccc2c2ccc(N)cc21` it is 3.32 µM; for `COc1cc(NC(C)CCCN)c2ncccc2c1` (centres undefined) it is “inactive”. For the molecule `CCOC(=O)/C=C(\C)Sc1cc(O)c2ccccc2c1O`, the IC50 was 4.61 µM. Take `COc1ccc2noc3c2c1C(=O)c1ccccc1-3`: the IC50 was 6.28 µM. On to `COC1=C(Br)C(=O)c2nc(C)ccc2C1=O`, for which the IC50 result is “inactive”.

For the molecule `COc1ccc(CNC(=O)c2c(C)oc3c2C(=O)c2ccccc2C3=O)cc1`, the IC50 entry was “inactive”. As for `Cc1oc2c(c1C(=O)O)C(=O)c1ccccc1C2=O`, the IC50 entry was “inactive”. For the molecule `COc1cc2c(cc1O)[C@@H]1Cc3ccc(OC)c(O)c3CN1CC2`, the IC50 result was “inactive”. As to `COc1ccc(NC(=S)Nc2ccc3nsnc3c2)cc1`, the IC50 is 6.9 µM. With `COc1cc2c(cc1OC)-c1c(OC)c(OC)cc3c1C(C2)N(C)CC3` (centres undefined), the IC50 was > 115 µM (inactive). The result for `O=C(COC(=O)c1ccc([N+](=O)[O-])s1)Nc1ccc(Cl)cn1` reads > 115 µM (inactive); that for `O=C1Cc2ccccc2C(=O)N1Cc1ccccc1`, 1.3 µM. As to `CN(C)S(=O)(=O)c1cccc(NC(=S)Nc2cccc3cnccc23)c1`, the IC50 entry was “inactive”. Turning to `Oc1c(C=Nc2cccc3nsnc23)ccc2ccccc12`, the IC50 entry is “inactive”. Consider `O=S(=O)(c1ccc2nc(-c3ccco3)c(-c3ccco3)nc2c1)N1CCOCC1`, for which the IC50 was > 115 µM (inactive).

On to `COC(=O)c1nc(-c2ccc3c(n2)C(=O)C(N)=C(OC)C3=O)c(N)c(-c2ccc(OC)c(OC)c2O)c1C`, for which the IC50 is 2.58 µM. In the case of `O=C(O)c1ccc(NC2=C/C(=N/S(=O)(=O)c3ccccc3)c3ccccc3C2=O)cc1`, the IC50 is 1.03 µM. In the case of `C=CCN1C(=O)/C(=C/c2ccc(OC(C)=O)c(OCC)c2[N+](=O)[O-])SC1=S`, the IC50 entry is “inactive”. As to `Nc1cc2c(cc1Br)[nH]c(=O)c1ccccc12`, the IC50 was 4.57 µM. Regarding `COc1cc(NCCCCCCN)c2ncccc2c1OC`, the concentration for half-maximal inhibition (IC50) is 5.97 µM. As to `Cc1ccc(S(=O)(=O)/N=C2\C=C(Nc3cccc(C(=O)O)c3)C(=O)c3ccccc32)c(C)c1`, the IC50 was 2.36 µM. As for `O=C1Cc2ccccc2C(=O)N1CCc1ccccc1`, the IC50 is 1.51 µM. The result for `CC1OC(CC(=O)O)CC2=C1C(=O)c1c(O)cccc1C2=O` (centres undefined) reads “inactive”. The result for `c1coc(-c2nnc(-c3ccco3)nn2)c1` reads “inactive”; that for `O=C(N/N=C1\C/C(=N\NC(=O)c2ccncc2)c2ccccc21)c1ccncc1`, 1.81 µM; that for `O=C(O)c1cccc(NC2=C(n3nnc4ccccc43)C(=O)c3ccccc3C2=O)c1`, “inactive”. As to `CCc1ccc(S(=O)(=O)/N=C2\C=C(Nc3cccc(C(=O)O)c3)C(=O)c3ccccc32)cc1`, the IC50 was 2.51 µM.

For the molecule `O=C(O)CSc1cc(NS(=O)(=O)c2ccc(Br)cc2)c2ccccc2c1O`, the IC50 result was “inactive”. In the case of `COc1cccc2c1C(=O)c1c(O)c3c(c(O)c1C2=O)C[C@@](O)(C(=O)CO)C[C@@H]3O[C@H]1C[C@H](N)[C@H](O)[C@H](C)O1`, the IC50 result was “inactive”. The result for `Cc1cc2c(cc1C)C(=O)C(Br)=C(N)C2=O` reads “inactive”; that for `CCOc1ccc2noc3c2c1C(=O)c1ccccc1-3`, “inactive”; that for `S=C(Nc1ccc2nsnc2c1)N1CCCCCC1`, “inactive”. With `Cc1oc2c(c1C(=O)N1CCOCC1)C(=O)c1ccccc1C2=O`, the IC50 result was “inactive”.

For the molecule `CCC(COC)Oc1cc(NCc2ccccc2)c2ncn(C(C)C)c2c1` (centres undefined), the IC50 result was “inactive”.

With `O=C(COC(=O)c1ccc([N+](=O)[O-])s1)Nc1ccccc1`, the IC50 entry is “inactive”.

Turning to `Cc1ccc(NC2=C(N3CCOCC3)C(=O)c3ccccc3C2=O)cc1`, the IC50 result is “inactive”.

As to `O=C1C(Nc2ccccc2)=C(N2CCCCC2)C(=O)c2ccccc21`, the IC50 entry is “inactive”.

On to `CN(C)c1ccc2nc3ccc(=O)cc-3sc2c1`, for which the IC50 is > 115 µM (inactive).

Consider `CCOC(=O)N1CCN(C2=C(NS(=O)(=O)c3ccc(C)cc3)C(=O)c3ccccc3C2=O)CC1`, for which the IC50 entry is “inactive”. In the case of `O=C(O)CCCNc1cc(N2CCN(C(=O)c3ccco3)CC2)c2noc3c2c1C(=O)c1ccccc1-3`, the IC50 entry was “inactive”. For the molecule `O=C1C(=NO)CCc2ccccc21`, the IC50 result is “inactive”.

The term IC50 denotes the concentration that gives 50% inhibition.
